# Measurements: patent publication EP0310305B1 (priority 1987, dated 1989)
# Like-named read-outs stand apart in the source and are kept apart here.
# What was measured:
# [1] = tested on: male rats (Crj Wister Rat; 180 - 240 g); assay: animal or person; type: in vivo; conditions: for Entero-pooling ED₅₀: rat, in vivo, 30 min; for ED50: Rattus norvegicus, 0.5 h
# Ileum = assay: tissue or blood; conditions: Rattus norvegicus
# Male Crj Wister rats = assay: animal or person; type: in vivo; conditions: Rattus norvegicus, po, 6 h, read-out: Cathartic Effect ED50
# healthy male volunteers = conditions: human, in vivo, po
# [2] = read-out: Intestinal Contraction
# [3] = read-out: Intestinal Contrac-tion
molecule,measurement,setting,value
"13,14-dihydro-15-keto-16R,S-fluoro-Δ²-PGA₁ [Test Drug 9]",Entero-pooling ED₅₀,[1],0.2 mg/kg
"CCCCCC(F)C(=O)CC[C@H]1[C@H](O)CC(=O)[C@@H]1C/C=C\CCCC(=O)OC (stereo partly shown) [Test Drug 5, 13,14-dihydro-15-keto-16R,S-fluoro-20-methyl-PGE₂ methyl ester]",ED50,[1]; read-out: Enteropooling ED₅₀,0.002 mg/kg
same,EC50,Ileum; [2],1 to 100 µM
"CCCCC[C@H](O)/C=C/[C@@H]1[C@@H](C/C=C\CCCC(=O)O)[C@@H](O)C[C@H]1O [Test Drug 19, PGF₂α, reference compound]",ED50,[1]; read-out: Entero-pooling ED₅₀,4.9 mg/kg
same,EC50,Ileum; [2],< 1 µM
"CCCCC(F)(F)C(=O)CC[C@@H]1[C@@H](C/C=C\CCCC(=O)OC)[C@@H](O)C[C@H]1O [Test Drug 14, 13,14-dihydro-15-keto-16,16-difluoro-PGF₂α methyl ester]",ED50,[1]; read-out: Entero-pooling ED₅₀,0.2 mg/kg
same,EC50,Ileum; [2],1 to 100 µM
"CCCCC(F)C(=O)/C=C/[C@@H]1[C@@H](C/C=C\CCCC(=O)OC)[C@@H](O)C[C@H]1O (stereo partly drawn) [Test Drug 18, 15-keto-16-R,S-fluoro-PGF₂α methyl ester]",ED50,[1]; read-out: Entero-pooling ED₅₀,0.15 mg/kg
same,EC50,Ileum; [2],> 100 µM
"CCCCC(F)C(=O)/C=C/[C@H]1[C@H](O)CC(=O)[C@@H]1C/C=C\CCCC(=O)OC (stereo partly shown) [Test Drug 7, 15-keto-16R,S-fluoro-PGE₂ methyl ester]",ED50,[1]; read-out: Enteropooling ED₅₀,0.002 mg/kg
same,EC50,Ileum; [2],1 to 100 µM
"CCCCC(F)C(=O)CC[C@@H]1[C@@H](C/C=C\CCCC(=O)OC)[C@@H](O)C[C@H]1O (stereo partly drawn) [Test Drug 13, 13,14-dihydro-15-keto-16R,S-fluoro-PGF₂α methyl ester]",ED50,[1]; read-out: Entero-pooling ED₅₀,0.14 mg/kg
"CCCCCCC(F)C(=O)CC[C@@H]1[C@@H](C/C=C\CCCC(=O)OC)[C@@H](O)C[C@H]1O (stereo partly drawn) [Test Drug 17, 13,14-dihydro-15-keto-20-ethyl-16R,S-fluoro-PGF₂α methyl ester]",ED50,[1]; read-out: Entero-pooling ED₅₀,0.6 mg/kg
same,EC50,Ileum; [2],1 to 100 µM
"CCCCC[C@H](O)/C=C/[C@H]1C=CC(=O)[C@@H]1CCCCCCC(=O)O [Test Drug 11, PGA₁, reference compound]",ED50,[1]; read-out: Entero-pooling ED₅₀,4 mg/kg
"CCCCC(F)(F)C(=O)CC[C@H]1[C@H](O)CC(=O)[C@@H]1C/C=C\CCCC(=O)OC [Test Drug 8, 13,14-dihydro-15-keto-16,16-difluoro-PGE₂ methyl ester]",ED50,[1]; read-out: Enteropooling ED₅₀,0.0002 mg/kg
same,EC50,Ileum; [2],1 to 100 µM
"CCCCC(F)C(=O)/C=C/[C@H]1[C@H](O)CC(=O)[C@@H]1C/C=C\CCCC(=O)O (stereo partly shown) [Test Drug 6, 15-keto-16R,S-fluoro-PGE₂]",ED50,[1]; read-out: Enteropooling ED₅₀,0.002 mg/kg
same,EC50,Ileum; [2],1 to 100 µM
"CCCCC[C@H](O)/C=C/[C@H]1[C@H](O)CC(=O)[C@@H]1C/C=C\CCCC(=O)O [Test Drug 1, Prostaglandin E2, reference compound]",ED50,[1]; read-out: Entero-pooling ED50,0.13 mg/kg
same,EC50,Ileum; [3],< 1 µM
same,ED50,Male Crj Wister rats,> 10 mg/kg
"CCCCC(F)C(=O)CC[C@@H]1[C@@H](C/C=C\CCCC(=O)O)[C@@H](O)C[C@H]1O (stereo partly drawn) [Test Drug 12, 13,14-dihydro-15-keto-16R,S-fluoro-PGF₂α]",ED50,[1]; read-out: Entero-pooling ED₅₀,0.2 mg/kg
same,EC50,Ileum; [2],> 100 µM
"CCCCC(F)C(=O)CC[C@H]1[C@H](O)CC(=O)[C@@H]1C/C=C\CCCC(=O)OC (stereo partly shown) [Test Drug 2, 13,14-dihydro-15-keto-16R,S-fluoro-prostaglandin]",ED50,[1]; read-out: Entero-pooling ED50,0.003 mg/kg
same,EC50,Ileum; [3],1 to 100 µM
same,ED50,Male Crj Wister rats,0.8 mg/kg
same,abnormality or malaise in belly at 8 hours after administration,healthy male volunteers,no particular abnormality nor malaise in belly
same,clinical observation,healthy male volunteers,no abnormality
same,other side effects,healthy male volunteers,no one complained of other side effects such as bellyache
"CCCCCCC(F)C(=O)CC[C@@H]1[C@@H](C/C=C\CCCC(=O)O)[C@@H](O)C[C@H]1O (stereo partly drawn) [Test Drug 16, 13,14-dihydro-15-keto-20-ethyl-16R,S-fluoro-PGF₂α]",ED50,[1]; read-out: Entero-pooling ED₅₀,0.7 mg/kg
same,EC50,Ileum; [2],> 100 µM
"13,14-dihydro-15-keto-16R,S-fluoro-Δ²-PGA₁ methyl ester [Test Drug 10]",Entero-pooling ED₅₀,[1],0.2 mg/kg
"CCCCCC(F)C(=O)CC[C@@H]1[C@@H](C/C=C\CCCC(=O)OC)[C@@H](O)C[C@H]1O (stereo partly drawn) [Test Drug 15, 13,14-dihydro-15-keto-16R,S-fluoro-20-methyl-PGF₂α methyl ester]",ED50,[1]; read-out: Entero-pooling ED₅₀,0.3 mg/kg
same,EC50,Ileum; [2],1 to 100 µM
"CCCCC(F)C(=O)CC[C@H]1[C@H](O)CC(=O)[C@@H]1C/C=C\CCCC(=O)OCC (stereo partly shown) [Test Drug 4, 13,14-dihydro-15-keto-16R,S-fluoro-PGE₂ ethyl ester]",ED50,[1]; read-out: Enteropooling ED₅₀,0.002 mg/kg
same,EC50,Ileum; [2],1 to 100 µM
